# Test results: patent publication US20080269162A1, “Novel Medicaments for Anti-Retroviral Treatments” (priority 2006, published 2008)
# Several values for one entry are separate records, joined by “and”; a condition that tells them apart may be missing. Equal values may be shown once.
# Test system: NDK (clade D) virus
# Test: RT activity and cell number as a function of the moment of incorporation, NDK virus
# Assay type: cell-based, HIV
# Settings: 0.1 μM; for Number of cells, J7: day 7; for Number of cells, J3 / Quantity of RT measured, J3: day 3
# Excerpt: The procedure was the same as that previously indicated with regard to the experiments carried out on MT4 cells; e.g., as in Example 2A.
# The results of the measurements done on days 3 and 7 are summarized in Table D; RT activity is expressed in dpm/mL and cells are expressed in 10^6 cells/mL.
# [1] = Continously, before, during and after
substance,measurement,setting,value
3′-azidothymidine [AZT],"Number of cells, J7",,3.2 10^6 Cells/mL and 1.6 10^6 Cells/mL
same,"Number of cells, J3",After infection,1.2 10^6 Cells/mL and 0.8 10^6 Cells/mL
same,"Quantity of RT measured, J3",After infection,1249 dpm/mL and 956 dpm/mL
same,"Number of cells, J7",After infection,1.8 10^6 Cells/mL and 3.2 10^6 Cells/mL
same,"Number of cells, J3",Before infection,1.4 10^6 Cells/mL and 0.8 10^6 Cells/mL
same,"Number of cells, J7",Before infection,2 10^6 Cells/mL and 3.8 10^6 Cells/mL
same,"Number of cells, J3",[1],1.7 10^6 Cells/mL and 1.3 10^6 Cells/mL
same,"Quantity of RT measured, J3",[1],399 dpm/mL and 750 dpm/mL
same,"Number of cells, J7",[1],3.6 10^6 Cells/mL and 3.2 10^6 Cells/mL
same,"Number of cells, J3",During dining room,1.9 10^6 Cells/mL and 1.6 10^6 Cells/mL
same,"Quantity of RT measured, J3",During dining room,1529 dpm/mL and 956 dpm/mL
